Experimental data as given in patent US12472177B2, “Bicyclic compounds and methods for their use in treating Pitt Hopkins syndrome” (NEUREN PHARMACEUTICALS LIMITED, priority 2019, dated 2025).

Tests used:
Tcf4^+/− mice [1] = assay: Open field (hypoactivity, distance travelled); assay type: in vivo, mouse; parameters: key to Open Field (Hypoactivity): Tukey’s Multiple Comparison Test Summary: **** = p < 0.00001; ns = not significant
Description: (§1) In vivo behavioral studies were conducted in Tcf4^+/− mutant and wildtype littermate control (WT) mice by Gen.DDI (Santiago, Chile). Littermate controls consist of the genotypes Tcf4^+/+. All Tcf4 mutant mice used were heterozygous for the Tcf4 mutation because homozygous mutations of Tcf4 result in embryonic to postnatal day 1 lethality. Ten mice per treatment group, 14 weeks of age, were used for behavioral experiments. Experiments were conducted in line with the requirements of the UK Animals (Scientific Procedures) Act, 1986. The mice were housed in plastic cages (35×30×12 cm), 5 in each and habituated to the animal facilities for at least a week before commencing the test. The room temperature (21° C.±2° C.), relative humidity (55%±5%), a 12-hour light-dark cycle (lights on 7 AM to 7 PM), and air exchange were automatically controlled. The animals had free access to commercial food pellets and water. Testing was performed during the light phase of the circadian cycle, with the order of testing being determined by the principle of conducting the most stressful tests last. Assays were designed to reproduce and expand on the original behavioral characterization of Tcf4^+/− mice. Tcf4^+/− and WT control mice were treated for 6 weeks prior to testing and tested 30 minutes following a dose of cG-2-AllylP, as described in Table 2 below.
The Open Field (OF) test is a combined test that is used to determine anxiety/hyperactivity, and for habituation to a novel environment, one of the most elementary forms of learning, in which decreased exploration as a function of repeated exposure to the same environment is taken as an index of memory. This is normally studied in two sessions of exposure to the open field, a 10-min and a 24 hr habituation session.
The device used for this study is a grey PVC enclosed arena 50×30 cm divided into 10 cm squares. Mice are brought to the experimental room 5-20 min before testing. A mouse is placed into a corner square facing the corner and observed for 3 min. The number of squares entered (whole body) and rears (both front paws off the ground, but not as part of grooming) are counted. The latency to the first rear is also noted. The movement of the mouse around the field was recorded with a video tracking device for 300 s (vNT4.0, Viewpoint). The latency for the mouse to enter the brightest, central part of the field total time spent in this central region, and total activity (in terms of path length in centimetres), were recorded.
The open field (OF) test is a test used to characterize explorative behavior, anxiety, and/or hypo- and hyperactivity in animals habituated to daily handling under novel and familiar conditions. During exposure to the open field mice will habituate to the environment and thus explore less, decreasing the amount movement they show over time.
In the present experiment, we recorded movement and rearing during an initial exposure (T1), during a second exposure after 10 minutes (T2) and during a third exposure after 24 hours (T3). Failures to reduce locomotion or rearing at 10 minutes and 24 hours indicate deficits in short- and long-term memory, respectively.
To evaluate whether cG-2-AllylP is effective to treat the hypoactivity in PTHS, we carried out Open Field studies. Lower scores on measures of open field locomotion were detected in Tcf4^+/− as compared to WT littermates, across the 30-minute test session.
The relative distance travelled is shown on the vertical axis, and the animals and their treatments are shown on the horizontal axis. Wild type (WT) mice treated with vehicle alone (left column) were considered to travel 100%. […] The effect of NNZ-2591 (cG-2-AllylP) were statistically significant.

Tcf4^+/− mice [2] = assay: Nest building (test of daily living); assay type: in vivo, mouse
Description: as §1
Nest building is an activity needed for mice to raise their offspring and is an indicator of social adaptation and activities of daily living. Tcf4^+/− mice build nests of substantially lower quality than wild type mice. Therefore, to determine if NNZ-2591 (cG-2-AllylP) might restore the quality of nest building, we carried out a series of studies.

Tcf4^+/− mice [3] = assay: Tcf4^+/− mouse model of Pitt Hopkins Syndrome, all tested behaviors (summary); assay type: in vivo
Description: Several genetically manipulated rodent models of PTHS have been created (Thaxton et al, 2018; Sweatt, 2013). These models share a common basis around heterozygous Tcf4 (Tcf4^+/−). Haploinsufficient mice (Tcf4^+/−) have been characterized as a model system for PTHS (Kennedy et al, 2016).
as §1

[4] = Tcf4^+/− + cG-2-AllylP (100 mg/kg) vs Tcf4^+/− + cG-2-AllylP (200 mg/kg)
[5] = Tcf4^+/− + cG-2-AllylP (100 mg/kg) vs WT + cG-2-AllylP (200 mg/kg)
[6] = Tcf4^+/− + vehicle vs Tcf4^+/− + cG-2-AllylP (200 mg/kg)
[7] = Tcf4^+/− + vehicle vs WT + cG-2-AllylP (100 mg/kg)
[8] = Tcf4^+/− mice, 100 mg/kg oral BID 6 weeks
[9] = Tcf4^+/− mice, 200 mg/kg oral BID 6 weeks
[10] = WT + cG-2-AllylP (100 mg/kg) vs Tcf4^+/− + cG-2-AllylP (100 mg/kg)
[11] = WT + cG-2-AllylP (100 mg/kg) vs Tcf4^+/− + cG-2-AllylP (200 mg/kg)
[12] = WT + cG-2-AllylP (100 mg/kg) vs WT + cG-2-AllylP (200 mg/kg)
[13] = WT + cG-2-AllylP (200 mg/kg) vs Tcf4^+/− + cG-2-AllylP (200 mg/kg)
[14] = WT + vehicle vs Tcf4^+/− + cG-2-AllylP (100 mg/kg)
[15] = WT + vehicle vs Tcf4^+/− + cG-2-AllylP (200 mg/kg)
[16] = WT + vehicle vs WT + cG-2-AllylP (100 mg/kg)
[17] = WT + vehicle vs WT + cG-2-AllylP (200 mg/kg)
[18] = WT mice, 100 mg/kg oral BID 6 weeks
[19] = WT mice, 200 mg/kg oral BID 6 weeks

C=CC[C@]12CCCN1C(=O)CNC2=O [cG-2-AllylP, (8aS)-Allyl-hexahydropyrrolo[1,2-a]pyrazine-1,4-dione]
Open Field (Hypoactivity): Tukey’s Multiple Comparison Test Summary (Tcf4^+/− mice [1]; [4]): ns
Open Field (Hypoactivity): Tukey’s Multiple Comparison Test Summary (Tcf4^+/− mice [1]; [5]): ns
Open Field (Hypoactivity): Tukey’s Multiple Comparison Test Summary (Tcf4^+/− mice [1]; Tcf4^+/− + vehicle vs Tcf4^+/− + cG-2-AllylP 1 (200 mg/kg) [r21-22]): **** (**** = p < 0.00001)
Open Field (Hypoactivity): Tukey’s Multiple Comparison Test Summary (Tcf4^+/− mice [1]; Tcf4^+/− + vehicle vs Tcf4^+/− + cG-2-AllylP (100 mg/kg) [r23-24]): **** (**** = p < 0.00001)
Open Field (Hypoactivity): Tukey’s Multiple Comparison Test Summary (Tcf4^+/− mice [1]; [6]): **** (**** = p < 0.00001)
Open Field (Hypoactivity): Tukey’s Multiple Comparison Test Summary (Tcf4^+/− mice [1]; [7]): **** (**** = p < 0.00001)
Behavior Normalized to WildType Levels: Open Field (Tcf4^+/− mice [1]; Tcf4^+/− mice, 100 mg/kg): ✓
Relative distance travelled (mobility), open field (Tcf4^+/− mice [1]; [8]): nearly identical mobility as did WT mice treated with vehicle alone
Behavior Normalized to WildType Levels: Open Field (Tcf4^+/− mice [1]; Tcf4^+/− mice, 200 mg/kg): ✓
Relative distance travelled (mobility), open field (Tcf4^+/− mice [1]; [9]): normalized this mild to moderate hypoactivity
Open Field (Hypoactivity): Tukey’s Multiple Comparison Test Summary (Tcf4^+/− mice [1]; [10]): ns
Open Field (Hypoactivity): Tukey’s Multiple Comparison Test Summary (Tcf4^+/− mice [1]; [11]): ns
Open Field (Hypoactivity): Tukey’s Multiple Comparison Test Summary (Tcf4^+/− mice [1]; [12]): ns
Open Field (Hypoactivity): Tukey’s Multiple Comparison Test Summary (Tcf4^+/− mice [1]; [13]): ns
Open Field (Hypoactivity): Tukey’s Multiple Comparison Test Summary (Tcf4^+/− mice [1]; [14]): ns
Open Field (Hypoactivity): Tukey’s Multiple Comparison Test Summary (Tcf4^+/− mice [1]; [15]): ns
Open Field (Hypoactivity): Tukey’s Multiple Comparison Test Summary (Tcf4^+/− mice [1]; [16]): ns
Open Field (Hypoactivity): Tukey’s Multiple Comparison Test Summary (Tcf4^+/− mice [1]; [17]): ns
Relative distance travelled (mobility), open field (Tcf4^+/− mice [1]; [18]): slightly higher mobility than WT mice treated with vehicle
Relative distance travelled (mobility), open field (Tcf4^+/− mice [1]; [19]): nearly the same mobility
Test of Daily Living: Tukey’s Multiple Comparison Test Summary (Tcf4^+/− mice [2]; [4]): ns
Test of Daily Living: Tukey’s Multiple Comparison Test Summary (Tcf4^+/− mice [2]; [5]): ns
Test of Daily Living: Tukey’s Multiple Comparison Test Summary (Tcf4^+/− mice [2]; Tcf4^+/− + vehicle vs Tcf4^+/− + cG-2-AllylP (100 mg/kg)): **** (**** = p < 0.0001)
Test of Daily Living: Tukey’s Multiple Comparison Test Summary (Tcf4^+/− mice [2]; [6]): **** (**** = p < 0.0001)
Test of Daily Living: Tukey’s Multiple Comparison Test Summary (Tcf4^+/− mice [2]; [7]): **** (**** = p < 0.0001)
Test of Daily Living: Tukey’s Multiple Comparison Test Summary (Tcf4^+/− mice [2]; Tcf4^+/− + vehicle vs WT + cG-2-AllylP (200 mg/kg)): **** (**** = p < 0.0001)
Behavior Normalized to WildType Levels: Nesting (Tcf4^+/− mice [2]; Tcf4^+/− mice, 100 mg/kg): ✓
Nest building quality (grade of 1-5) (Tcf4^+/− mice [2]; [8]): normalized the quality of nests to levels nearly identical to WT mice
Behavior Normalized to WildType Levels: Nesting (Tcf4^+/− mice [2]; Tcf4^+/− mice, 200 mg/kg): ✓
Nest building quality (grade of 1-5) (Tcf4^+/− mice [2]; [9]): normalized the quality of nests to levels nearly identical to WT mice
Test of Daily Living: Tukey’s Multiple Comparison Test Summary (Tcf4^+/− mice [2]; [10]): ns
Test of Daily Living: Tukey’s Multiple Comparison Test Summary (Tcf4^+/− mice [2]; [11]): ns
Test of Daily Living: Tukey’s Multiple Comparison Test Summary (Tcf4^+/− mice [2]; [12]): ns
Test of Daily Living: Tukey’s Multiple Comparison Test Summary (Tcf4^+/− mice [2]; [13]): ns
Test of Daily Living: Tukey’s Multiple Comparison Test Summary (Tcf4^+/− mice [2]; [14]): ns
Test of Daily Living: Tukey’s Multiple Comparison Test Summary (Tcf4^+/− mice [2]; [15]): ns
Test of Daily Living: Tukey’s Multiple Comparison Test Summary (Tcf4^+/− mice [2]; [16]): ns
Test of Daily Living: Tukey’s Multiple Comparison Test Summary (Tcf4^+/− mice [2]; [17]): ns
Nest building quality (grade of 1-5) (Tcf4^+/− mice [2]; [18]): nearly identical to those of vehicle-treated WT mice
Nest building quality (grade of 1-5) (Tcf4^+/− mice [2]; [19]): nearly identical to those of vehicle-treated WT mice
Rescue of tested behaviors of the PTHS phenotype (Tcf4^+/− mice [3]; Tcf4^+/− mice, 100 mg/kg for 6 weeks): rescued all tested behaviors, except for fear conditioning
Rescue of tested behaviors of the PTHS phenotype (Tcf4^+/− mice [3]; Tcf4^+/− mice, 200 mg/kg for 6 weeks): rescued all tested behaviors of the PTHS phenotype
Rescue of the phenotype of the Tcf4^+/− knockout mouse model (Tcf4^+/− mice [3]; Tcf4^+/− mice, oral administration for 6 weeks): can rescue the phenotype
Impact on wild type control mice (Tcf4^+/− mice [3]; WT mice, oral administration for 6 weeks): no impact
